Laboratory results taken from ChEMBL document CHEMBL3091339 (J Med Chem, 2013).
Active and inactive are the calls of the source.

What was measured:
Mus musculus [1] = experiment: Anticonvulsant activity in CD-1 mouse assessed as protection against maximal electroshock-induced tonic extension of hind limbs at 300 mg/kg, ip after 0.5 hrs; format: functional, organism-based; set-up: dose 300 mg/kg; conditions: Hindlimb
Mus musculus [2] = experiment: Anticonvulsant activity in CD-1 mouse assessed as protection against maximal electroshock-induced tonic extension of hind limbs at 100 mg/kg, po after 0.5 hrs; format: functional, organism-based; set-up: dose 100 mg/kg; conditions: Hindlimb
Mus musculus [3] = experiment: Anticonvulsant activity in CD-1 mouse assessed as protection against maximal electroshock-induced tonic extension of hind limbs at 100 mg/kg, po after 2 hrs; format: functional, organism-based; set-up: dose 100 mg/kg; conditions: Hindlimb
Carbonic anhydrase 2 = Carbonic anhydrase 2 (Homo sapiens, UniProt P00918)
Description: Inhibition of human carbonic anhydrase 2 by CO2 hydration assay

Mus musculus [4] = experiment: Anticonvulsant activity in CD-1 mouse assessed as protection against maximal electroshock-induced tonic extension of hind limbs at 300 mg/kg, po after 2 hrs; format: functional, organism-based; set-up: dose 300 mg/kg; conditions: Hindlimb
Rattus norvegicus [5] = species: Rattus norvegicus; experiment: Toxicity in Sprague-Dawley rat assessed as ataxia by Irwin test; format: organism-based; conditions: in vivo
Mus musculus [6] = species: Mus musculus; experiment: animal or person; conditions: CF-1, Hindlimb, po, 2 h
Description: Anticonvulsant activity in po dosed CF-1 mouse assessed as protection against maximal electroshock-induced tonic extension of hind limbs measured at 2 hrs

Rattus norvegicus [7] = experiment: Anticonvulsant activity in ip dosed Sprague-Dawley rat hippocampal kindling model assessed as suppression of seizure activity treated 15 for mins post suprathreshold-stimulation; format: functional, organism-based; conditions: Hippocampus
Mus musculus [8] = experiment: Anticonvulsant activity in intravenous PTZ-induced CF-1 mouse assessed as increase in seizure threshold for twitch at 182 mg/kg, po treated for 15 mins prior to PTZ-challenge relative to control; format: functional
Mus musculus [9] = experiment: Anticonvulsant activity in intravenous PTZ-induced CF-1 mouse assessed as increase in seizure threshold for clonus at 182 mg/kg, po treated for 15 mins prior to PTZ-challenge relative to control; format: functional
[10] = Neurotoxicity in po dosed Sprague-Dawley rat by rotarod test; format: toxicity, organism-based; conditions: in vivo
Mus musculus [11] = species: Mus musculus
Description: Anticonvulsant activity in po dosed CF-1 mouse assessed as protection against maximal electroshock-induced tonic extension of hind limbs measured at 1 hr

Mus musculus [12] = experiment: Neurotoxicity in CF-1 mouse at 250 mg/kg, po by rotarod test; format: toxicity, organism-based; set-up: dose 250 mg/kg, route oral; conditions: in vivo
Rattus norvegicus [13] = experiment: Anticonvulsant activity in Sprague-Dawley rat hippocampal kindling model assessed as reduction in global seizures at >26 mg/kg, ip treated 15 for mins post suprathreshold-stimulation; format: functional, organism-based; conditions: Hippocampus

## NS(=O)(=O)NCC1Oc2ccccc2O1
Mus musculus [1]
  Activity: Active
Mus musculus [2]
  Activity: Active
Mus musculus [3]
  Activity: inactive

## CN(C)S(=O)(=O)NCC1COc2ccccc2O1 (racemic)
Carbonic anhydrase 2
  IC50: > 1 mM
Mus musculus [4]
  Activity: inactive

## NS(=O)(=O)NC[C@H]1COc2cc(F)ccc2O1
Mus musculus [4]
  Activity: Active

## NS(=O)(=O)NC[C@@H]1COc2ccccc2O1
Mus musculus [1]
  Activity: Active
Rattus norvegicus [5]
  Activity: Toxic

## O=C1NC(=O)C(c2ccccc2)(c2ccccc2)N1 [PHENYTOIN]
Mus musculus [6]
  ED50: 9 mg/kg
Rattus norvegicus [7]
  Activity: Active

## CCC1(C)CC(=O)NC1=O (stereo not given)
Rattus norvegicus [7]
  Activity: inactive

## NS(=O)(=O)NCC1COc2ccccc2O1 (racemic)
Mus musculus [8]
  Activity: 41%
Mus musculus [1]
  Activity: Active
Mus musculus [9]
  Activity: 59%
[10]
  TD50: 182 mg/kg

## CC1(C)O[C@@H]2[C@@H](CO[C@@]3(COS(N)(=O)=O)OC(C)(C)O[C@@H]23)O1 [TOPIRAMATE]
Rattus norvegicus [7]
  Activity: inactive
Mus musculus [11]
  ED50: 43.8 mg/kg

## NS(=O)(=O)NC[C@H]1COc2ccccc2O1
Mus musculus [1]
  Activity: Active
Mus musculus [12]
  Activity: Non-toxic

## NS(=O)(=O)NCC1Oc2ccc(Cl)cc2O1 (stereo not given)
Mus musculus [2]
  Activity: inactive
Mus musculus [3]
  Activity: inactive

## NS(=O)(=O)NC[C@H]1COc2cccc(Cl)c2O1
Mus musculus [3]
  Activity: inactive

## NS(=O)(=O)NC[C@H]1COc2cc(Cl)c(Cl)cc2O1
Mus musculus [2]
  Activity: inactive

## NC(=O)N1c2ccccc2C=Cc2ccccc21
Rattus norvegicus [7]
  Activity: Active
Rattus norvegicus [13]
  Activity: Active
